This experiment in a line: In vitro binding affinity using [3H]LTB4 radioligand binding to leukotriene B4 receptor in human neutrophil binding assay.

Structures are written as SMILES.

Consider `CCCc1c(OCCCOc2cc(O)c(OCC)cc2CC)ccc2c1OC(C(=O)O)CC2` (configuration not stated) [7-[3-(4-Ethoxy-2-ethyl-5-hydroxy-phenoxy)-propoxy]-8-propyl-chroman-2-carboxylic acid], for which the Ki worked out at 3.5 nM.
For `CCCc1c(OCCCOc2cc(O)c(OC)cc2CC)ccc2c1OC(C(=O)O)CC2` (configuration not stated) [7-[3-(2-Ethyl-5-hydroxy-4-methoxy-phenoxy)-propoxy]-8-propyl-chroman-2-carboxylic acid], the Ki was 1.9 nM.
